Active and inactive are the calls of the source. No cut-off for these calls is given here.
molecular target: T1, Tyrosine-protein kinase JAK2 (Homo sapiens, UniProt O60674); assay: biochemical; conditions: not given
T1 sequence (O60674 whole entry): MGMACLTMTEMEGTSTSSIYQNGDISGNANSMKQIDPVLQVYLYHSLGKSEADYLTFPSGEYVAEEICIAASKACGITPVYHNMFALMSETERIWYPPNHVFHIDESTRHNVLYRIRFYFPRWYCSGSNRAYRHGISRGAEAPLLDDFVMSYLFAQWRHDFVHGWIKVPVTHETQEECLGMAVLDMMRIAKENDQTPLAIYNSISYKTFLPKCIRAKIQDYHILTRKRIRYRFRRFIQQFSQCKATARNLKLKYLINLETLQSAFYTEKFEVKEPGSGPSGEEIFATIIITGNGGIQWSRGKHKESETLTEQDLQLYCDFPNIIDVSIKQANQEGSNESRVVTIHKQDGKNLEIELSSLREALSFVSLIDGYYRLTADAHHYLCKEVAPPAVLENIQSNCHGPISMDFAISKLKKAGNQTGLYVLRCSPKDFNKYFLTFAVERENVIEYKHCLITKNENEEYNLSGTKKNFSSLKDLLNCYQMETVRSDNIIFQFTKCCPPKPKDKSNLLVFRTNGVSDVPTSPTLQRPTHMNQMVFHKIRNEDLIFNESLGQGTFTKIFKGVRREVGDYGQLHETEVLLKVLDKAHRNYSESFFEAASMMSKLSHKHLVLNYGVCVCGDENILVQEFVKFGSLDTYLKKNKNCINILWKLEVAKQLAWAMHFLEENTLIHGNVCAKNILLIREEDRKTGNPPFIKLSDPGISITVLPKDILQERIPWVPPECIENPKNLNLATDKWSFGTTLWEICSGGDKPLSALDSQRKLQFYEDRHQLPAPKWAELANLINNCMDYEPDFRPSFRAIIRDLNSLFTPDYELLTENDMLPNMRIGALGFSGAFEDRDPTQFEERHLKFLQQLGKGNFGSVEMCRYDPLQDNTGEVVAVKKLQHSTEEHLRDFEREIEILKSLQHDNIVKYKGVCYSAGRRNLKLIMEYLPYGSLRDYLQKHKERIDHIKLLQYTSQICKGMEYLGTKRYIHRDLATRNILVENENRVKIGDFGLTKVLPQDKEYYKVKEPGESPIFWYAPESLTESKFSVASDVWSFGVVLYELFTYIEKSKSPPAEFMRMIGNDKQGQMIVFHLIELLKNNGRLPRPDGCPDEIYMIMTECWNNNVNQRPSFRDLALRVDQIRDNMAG

Compound | Kd
Nc1nc(Nc2ccc(S(N)(=O)=O)cc2)nn1C(=O)Nc1ccc(-c2ccnc(C(=O)O)c2)cc1 | 8.1 µM
Nc1nc(Nc2ccc(S(N)(=O)=O)cc2)nn1C(=O)Nc1ccc(-c2cc(OCc3ccccc3)cc(C(=O)O)c2)cc1 | 3.36 µM
CNC(=O)c1ccc(Nc2nc(N)n(C(=O)Nc3ccc(-c4cc(OCc5ccccc5)cc(C(=O)O)c4)cc3)n2)cc1 | 5.91 µM
CNC(=O)c1ccc(Nc2nc(N)n(C(=O)Nc3ccc(-c4ccc(OCc5ccccc5)c(C(=O)O)c4)cc3)n2)cc1 | 6.81 µM

molecular target: T1, Tyrosine-protein kinase JAK2; assay: Inhibition of JAK2 JH2 (unknown origin) expressed in baculovirus infected Sf9 cells at 50 uM incubated upto 30 mins in the presence of tracer by competitive fluorescence polarization analysis relative to control; conditions: not given

Compound | inhibition
Nc1nc(Nc2ccc(S(N)(=O)=O)cc2)nn1C(=O)Nc1ccc(-c2ccccc2)cc1 | 30.5%
COC(=O)c1cccc(-c2ccc(NC(=O)n3nc(Nc4ccc(S(N)(=O)=O)cc4)nc3N)cc2)c1 | 27%

test system: Tyrosine-protein kinase JAK2 (Homo sapiens), O60674 [V617F]; assay: Inhibition of JAK2 JH2 V617F mutant in human HEL cells assessed as reduction in STAT5 phosphorylation at 10 to 20 uM incubated for 1 hrs by Western blotting analysis; type: cell-based; conditions: dose 10-20 µM
Sequence (O60674 whole entry V617F): as the sequence (O60674 whole entry) above, with V617F counted along it

Compound | inhibition
CNC(=O)c1ccc(Nc2nc(N)n(C(=O)Nc3ccc(-c4ccc(OCc5ccccc5)c(C(=O)O)c4)cc3)n2)cc1 | Active

test system: not given; assay: not given; conditions: pampa, pH 7.4, 18 h

Compound | permeability
COC(=O)c1cccc(-c2ccc(NC(=O)n3nc(Nc4ccc(S(N)(=O)=O)cc4)nc3N)cc2)c1 | 0.09 10^-6 cm/s
Nc1nc(Nc2ccc(S(N)(=O)=O)cc2)nn1C(=O)Nc1ccc(-c2cc(OCc3ccccc3)cc(C(=O)O)c2)cc1 | 1.15 10^-6 cm/s
CNC(=O)c1ccc(Nc2nc(N)n(C(=O)Nc3ccc(-c4cc(OCc5ccccc5)cc(C(=O)O)c4)cc3)n2)cc1 | 0.971 10^-6 cm/s
Nc1nc(Nc2ccc(S(N)(=O)=O)cc2)nn1C(=O)Nc1ccc(-c2cccc(C(=O)O)c2)cc1 | 0.015 10^-6 cm/s
CNC(=O)c1ccc(Nc2nc(N)n(C(=O)Nc3ccc(-c4ccc(OCc5ccccc5)c(C(=O)O)c4)cc3)n2)cc1 | 0.24 10^-6 cm/s

molecular target: Tyrosine-protein kinase JAK2 (Homo sapiens, UniProt O60674, V617F); assay: biochemical; conditions: not given
Sequence (O60674 whole entry V617F): as the sequence (O60674 whole entry) above, with V617F counted along it

Compound | Kd
Nc1nc(Nc2ccc(S(N)(=O)=O)cc2)nn1C(=O)Nc1ccc(-c2ccnc(C(=O)O)c2)cc1 | 0.131 µM
Nc1nc(Nc2ccc(S(N)(=O)=O)cc2)nn1C(=O)Nc1ccc(-c2cc(OCc3ccccc3)cc(C(=O)O)c2)cc1 | 0.062 µM
CNC(=O)c1ccc(Nc2nc(N)n(C(=O)Nc3ccc(-c4cc(OCc5ccccc5)cc(C(=O)O)c4)cc3)n2)cc1 | 0.05 µM
CNC(=O)c1ccc(Nc2nc(N)n(C(=O)Nc3ccc(-c4ccc(OCc5ccccc5)c(C(=O)O)c4)cc3)n2)cc1 | 0.043 µM

molecular target: T1, Tyrosine-protein kinase JAK2; assay: biochemical; conditions: not given; remark: another data set of the same source

Compound | Kd
Nc1nc(Nc2ccc(S(N)(=O)=O)cc2)nn1C(=O)Nc1ccc(-c2ccnc(C(=O)O)c2)cc1 | 0.394 µM
Nc1nc(Nc2ccc(S(N)(=O)=O)cc2)nn1C(=O)Nc1ccc(-c2cc(OCc3ccccc3)cc(C(=O)O)c2)cc1 | 0.075 µM
Nc1nc(Nc2ccc(S(N)(=O)=O)cc2)nn1C(=O)Nc1ccc(-c2ccc(C(=O)O)cc2)cc1 | 0.155 µM
CNC(=O)c1ccc(Nc2nc(N)n(C(=O)Nc3ccc(-c4cc(OCc5ccccc5)cc(C(=O)O)c4)cc3)n2)cc1 | 0.044 µM
Nc1nc(Nc2ccc(S(N)(=O)=O)cc2)nn1C(=O)Nc1ccc(-c2cccc(C(=O)O)n2)cc1 | 0.934 µM
Nc1nc(Nc2ccc(S(N)(=O)=O)cc2)nn1C(=O)Nc1ccc(-c2cccc(C(=O)O)c2)cc1 | 0.129 µM
Nc1nc(Nc2ccc(S(N)(=O)=O)cc2)nn1C(=O)Nc1ccc(-c2cncc(C(=O)O)n2)cc1 | 1.4 µM
Nc1nc(Nc2ccc(S(N)(=O)=O)cc2)nn1C(=O)Nc1ccc(-c2cncc(C(=O)O)c2)cc1 | 0.652 µM

test system: Tyrosine-protein kinase JAK2 (Homo sapiens), O60674 [V617F]; assay: Inhibition of JAK2 JH2 V617F mutant in human HEL cells assessed as reduction in STAT5 phosphorylation at 20 uM measured after 3 hrs by Western blotting analysis; type: cell-based; conditions: not given

Compound | inhibition
CNC(=O)c1ccc(Nc2nc(N)n(C(=O)Nc3ccc(-c4ccc(OCc5ccccc5)c(C(=O)O)c4)cc3)n2)cc1 | Active

molecular target: T1, Tyrosine-protein kinase JAK2; assay: Inhibition of wild type JAK2 JH2 in human TF-1 cells assessed as reduction in STAT5 phosphorylation at 10 to 20 uM incubated for 1 hrs by Western blotting analysis; type: cell-based; conditions: dose 10-20 µM

Compound | inhibition
CNC(=O)c1ccc(Nc2nc(N)n(C(=O)Nc3ccc(-c4ccc(OCc5ccccc5)c(C(=O)O)c4)cc3)n2)cc1 | Active

From ChEMBL document CHEMBL5131539, “Insights on JAK2 Modulation by Potent, Selective, and Cell-Permeable Pseudokinase-Domain Ligands” (J Med Chem, 2022)
